US12472231B2 (priority 2020, dated 2025)
In brackets after ≈: the same amount, converted by molar mass. Where a SMILES comes first, the peptide text is derived from it.

Columns and labels:
SARS-CoV-2 [1] = tested on: SARS-CoV-2
rhinovirus [2] = assay type: binding; settings: peptide coated on ELISA plate, bound virus by RT-qPCR
MERS-CoV [3] = tested on: MERS-CoV
[4] = tested on: A(H1N1)pdm09 virus RNP release in MDCK cells
[5] = tested on: virus-host endosomal acidification; assay type: cell-based
rhinovirus [6] = tested on: rhinovirus
[7] = tested on: endosomal acidification in MDCK cells; assay type: cell-based, canine
A(H7N9) virus [8] = tested on: A(H7N9) virus
SARS-CoV [9] = tested on: SARS-CoV
H1N1 HA1 protein = H1N1 HA1 protein (Influenza A virus, UniProt C3W5S1)
Chain of H1N1 HA1 protein (C3W5S1 18-344 limits assumed): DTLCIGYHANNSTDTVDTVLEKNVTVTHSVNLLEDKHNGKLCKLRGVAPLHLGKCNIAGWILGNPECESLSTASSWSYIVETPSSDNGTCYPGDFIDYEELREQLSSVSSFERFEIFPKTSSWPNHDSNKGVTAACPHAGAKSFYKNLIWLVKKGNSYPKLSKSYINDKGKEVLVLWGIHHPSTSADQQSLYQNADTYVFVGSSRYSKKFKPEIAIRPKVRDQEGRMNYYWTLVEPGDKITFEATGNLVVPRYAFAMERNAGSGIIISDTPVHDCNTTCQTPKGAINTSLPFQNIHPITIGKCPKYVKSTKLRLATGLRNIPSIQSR

MERS-CoV S protein = MERS-CoV S protein (Middle East respiratory syndrome-related coronavirus, UniProt K9N5Q8)
Chain of MERS-CoV S protein (K9N5Q8 18-1353 limits assumed): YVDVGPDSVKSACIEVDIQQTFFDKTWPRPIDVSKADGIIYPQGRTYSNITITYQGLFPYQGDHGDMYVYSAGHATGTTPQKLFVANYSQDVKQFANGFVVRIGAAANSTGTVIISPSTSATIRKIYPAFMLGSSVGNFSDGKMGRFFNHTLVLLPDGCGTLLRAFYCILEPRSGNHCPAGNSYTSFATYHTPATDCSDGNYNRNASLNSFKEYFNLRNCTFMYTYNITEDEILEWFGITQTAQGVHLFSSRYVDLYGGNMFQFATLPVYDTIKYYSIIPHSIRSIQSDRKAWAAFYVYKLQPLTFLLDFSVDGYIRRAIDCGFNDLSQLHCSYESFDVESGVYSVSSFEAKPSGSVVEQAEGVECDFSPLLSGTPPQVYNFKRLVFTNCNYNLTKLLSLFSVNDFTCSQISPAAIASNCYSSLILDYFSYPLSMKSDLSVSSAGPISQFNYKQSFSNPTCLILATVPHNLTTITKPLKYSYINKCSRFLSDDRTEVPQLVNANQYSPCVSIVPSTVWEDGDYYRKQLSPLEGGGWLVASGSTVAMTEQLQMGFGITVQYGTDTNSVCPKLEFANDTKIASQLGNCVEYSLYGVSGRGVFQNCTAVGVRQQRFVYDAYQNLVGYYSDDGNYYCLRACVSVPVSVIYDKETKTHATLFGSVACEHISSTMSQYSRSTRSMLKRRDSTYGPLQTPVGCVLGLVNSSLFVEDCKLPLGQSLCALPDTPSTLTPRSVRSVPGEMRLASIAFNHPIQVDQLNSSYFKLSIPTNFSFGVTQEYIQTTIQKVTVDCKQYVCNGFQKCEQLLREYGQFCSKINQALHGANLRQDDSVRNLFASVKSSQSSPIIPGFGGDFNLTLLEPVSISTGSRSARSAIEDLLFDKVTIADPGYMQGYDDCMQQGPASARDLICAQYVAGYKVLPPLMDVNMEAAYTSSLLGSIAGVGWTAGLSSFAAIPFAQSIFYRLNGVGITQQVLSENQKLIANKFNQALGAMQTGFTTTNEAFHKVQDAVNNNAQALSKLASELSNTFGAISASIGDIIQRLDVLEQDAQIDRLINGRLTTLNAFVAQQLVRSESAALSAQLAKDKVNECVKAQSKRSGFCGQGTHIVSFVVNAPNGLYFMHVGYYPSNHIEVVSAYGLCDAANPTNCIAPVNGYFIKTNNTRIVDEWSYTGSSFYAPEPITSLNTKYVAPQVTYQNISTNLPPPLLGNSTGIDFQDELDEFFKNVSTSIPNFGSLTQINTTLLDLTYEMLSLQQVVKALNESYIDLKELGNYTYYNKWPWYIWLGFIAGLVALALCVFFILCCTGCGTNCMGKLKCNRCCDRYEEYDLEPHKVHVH

SARS-CoV-2 [10] = tested on: SARS-CoV-2; remark: listed apart in the source
A(H1N1)pdm09 virus [11] = assay type: binding
A(H1N1)pdm09 virus [12] = assay type: cell-based
A(H7N9) virus [13] = tested on: A(H7N9) virus; remark: listed apart in the source
A(H7N9) virus [14] = assay type: binding
MERS-CoV [15] = assay type: binding
rhinovirus [16] = tested on: rhinovirus; remark: listed apart in the source
MERS-CoV [17] = tested on: MERS-CoV; remark: listed apart in the source
SARS-CoV [18] = assay type: binding
SARS-CoV-2 [19] = assay type: binding
A(H1N1)pdm09 virus [20] = tested on: A(H1N1)pdm09 virus

CC[C@H](C)[C@H](NC(=O)[C@H](C)NC(=O)CNC(=O)[C@@H](N)CC(N)=O)C(=O)N[C@@H](CS)C(=O)N[C@@H](Cc1c[nH]c2ccccc12)C(=O)NCC(=O)N1CCC[C@H]1C(=O)N[C@@H](CS)C(=O)N1CCC[C@H]1C(=O)N[C@H](C(=O)N[C@@H](C)C(=O)N[C@@H](Cc1ccccc1)C(=O)N[C@@H](CCCNC(=N)N)C(=O)N[C@@H](CCC(N)=O)C(=O)N[C@H](C(=O)NCC(=O)N[C@@H](CC(N)=O)C(=O)N[C@@H](CS)C(=O)NCC(=O)N[C@@H](Cc1c[nH]cn1)C(=O)N[C@@H](Cc1ccccc1)C(=O)N[C@@H](CCCCN)C(=O)N[C@H](C(=O)N[C@@H](CCCNC(=N)N)C(=O)N[C@@H](CS)C(=O)N[C@@H](CS)C(=O)N[C@@H](CCCCN)C(=O)N[C@H](C(=O)N[C@@H](CCCNC(=N)N)C(=O)O)[C@@H](C)CC)C(C)C)[C@@H](C)CC)[C@@H](C)O [P9, reference compound]
IC50 against SARS-CoV-2 (SARS-CoV-2 [1]): 2.4 µg/mL (≈ 0.719 µM) | IC50 against parainfluenza virus 3 (parainfluenza virus 3): > 25.0 µg/mL

CC[C@H](C)[C@H](NC(=O)[C@H](C)NC(=O)CNC(=O)[C@@H](N)CC(N)=O)C(=O)N[C@@H](CS)C(=O)N[C@@H](Cc1c[nH]c2ccccc12)C(=O)NCC(=O)N1CCC[C@H]1C(=O)N[C@@H](CS)C(=O)N1CCC[C@H]1C(=O)N[C@H](C(=O)N[C@@H](C)C(=O)N[C@@H](Cc1ccccc1)C(=O)N[C@@H](CCCNC(=N)N)C(=O)N[C@@H](CCC(N)=O)C(=O)N[C@H](C(=O)NCC(=O)N[C@@H](CC(N)=O)C(=O)N[C@@H](CS)C(=O)NCC(=O)N[C@@H](CCCNC(=N)N)C(=O)N[C@@H](Cc1ccccc1)C(=O)N[C@@H](CCCNC(=N)N)C(=O)N[C@H](C(=O)N[C@@H](CCCNC(=N)N)C(=O)N[C@@H](CS)C(=O)N[C@@H](CS)C(=O)N[C@@H](CCCNC(=N)N)C(=O)N[C@H](C(=O)N[C@@H](CCCNC(=N)N)C(=O)O)[C@@H](C)CC)C(C)C)[C@@H](C)CC)[C@@H](C)O [P9R] (H-NGAICWGPCPTAFRQIGNCGRFRVRCCRIR-OH)
binding to rhinovirus (rhinovirus [2]): could also bind | inhibition of viral replication (viral RNA copies in supernatants) (MERS-CoV [3]): 1000 fold | inhibition of viral RNP release into nuclei [4]: could inhibit viral RNP release into nuclei | inhibition of virus-host endosomal acidification [5]: could efficiently inhibit the virus-host endosomal acidification | inhibition of viral replication (viral RNA copies in supernatants) (rhinovirus [6]): > 20 fold | inhibition of endosomal acidification in live cells [7]: could more significantly inhibit endosomal acidification | inhibition against A(H7N9) virus compared with P9 (A(H7N9) virus [8]): significantly stronger inhibition | inhibition of viral replication (viral RNA copies in supernatants) (SARS-CoV [9]): 1000 fold | IC50 against SARS-CoV-2 (SARS-CoV-2 [1]): 0.9 µg/mL (≈ 0.264 µM) | binding to viral protein H1N1 HA1 (H1N1 HA1 protein): could also bind | IC50 against parainfluenza virus 3 (parainfluenza virus 3): > 25.0 µg/mL | binding to viral protein MERS-CoV S (MERS-CoV S protein): could also bind | inhibition of viral replication (viral RNA copies in supernatants) (SARS-CoV-2 [10]): 1000 fold | binding to A(H1N1)pdm09 virus (A(H1N1)pdm09 virus [11]): could efficiently bind | inhibition against A(H1N1)pdm09 virus compared with P9 (A(H1N1)pdm09 virus [12]): significantly stronger inhibition | inhibition of viral replication (viral RNA copies in supernatants) (A(H7N9) virus [13]): > 20 fold | binding to A(H7N9) virus (A(H7N9) virus [14]): could also bind | binding to MERS-CoV (MERS-CoV [15]): could also bind | inhibition against rhinovirus compared with P9 (rhinovirus [16]): significantly stronger inhibition | inhibition against MERS-CoV compared with P9 (MERS-CoV [17]): significantly stronger inhibition | binding to SARS-CoV (SARS-CoV [18]): could also bind | binding to SARS-CoV-2 (SARS-CoV-2 [19]): could efficiently bind | inhibition of viral replication (viral RNA copies in supernatants) (A(H1N1)pdm09 virus [20]): > 20 fold

CO/C1=C\C(C)=C\[C@@H](C)[C@@H](O)[C@@H](C)C/C(C)=C/C=C/[C@H](OC)[C@@H]([C@@H](C)[C@@H](O)[C@H](C)[C@@]2(O)C[C@@H](O)[C@H](C)[C@@H](C(C)C)O2)OC1=O [bafilomycin A1, reference compound]
inhibition of virus-host endosomal acidification [5]: could efficiently inhibit the virus-host endosomal acidification
